# Experimental data as given in patent US20260345619A1 (Principia Biopharma Inc., priority 2023, published 2026).
# Assay: Loss of asthma control (LOAC) events, 12-week ICS/LABA withdrawal study
# Format: in vivo, human
# Settings: 400 mg TID
# Excerpt: The general construct of this 12-week Loss of Asthma Control (LOAC) study consisted of a 4-week standardized ICS/LABA background therapy stabilization phase, a 4or 5-week background therapy withdrawal phase and a 3- or 4-week no background therapy phase, followed by a 4-week post IMP treatment safety follow-up period at the beginning of which, pre-screening asthma controller medications are restarted. Participants had access to short-acting β-agonist (SABA) reliever medication at all times during the protocol.
# The primary endpoint was the proportion of patients with LOAC. The key secondary endpoint for the study was change in pre-bronchodilator FEV1 from baseline at EOT.
# The primary endpoint was proportion of participants with LOAC during the 12-week treatment period.
# Note that if the number of participants in some regions was too low, these regions may have been pooled with other regions. This strategy also applied to all the rest of the analyses where region was one of the covariates.
# To assess the consistency in treatment effects across different subgroup levels, subgroup analyses were to be performed for the primary efficacy endpoint with respect to age group, gender, region, and other factors.
# Secondary endpoints included pre-bronchodilator FEV1 change from baseline at EOT, ACQ-5 score change from baseline, and AQLQ score change from baseline. Other secondary and exploratory endpoints are described in Table 2.
# [1] = all others than low EOS and low FeNO
# [2] = baseline IgA <Median (2190) mg/L
# [3] = baseline IgA ≥Median (2190) mg/L
# [4] = baseline IgE <Median (121.85) IU/mL
# [5] = baseline IgE ≥Median (121.85) IU/mL
# [6] = baseline pre-BD FEV1 <Median (2.1955) L
# [7] = baseline pre-BD FEV1 ≥Median (2.1955) L
# [8] = blood eosinophil level 1 <0.15 (10^9/L)
# [9] = blood eosinophil level 1 ≥0.15-<0.3 (10^9/L)
# [10] = blood eosinophil level 1 ≥0.3 (10^9/L)
# [11] = blood eosinophil level 2 <0.3 (10^9/L)
# [12] = blood eosinophil level 2 ≥0.3 (10^9/L)
# [13] = low EOS (<0.15) and low FeNO (<25)
# [14] = percent predicted FEV1 group 1 <Median (77)
# [15] = percent predicted FEV1 group 1 ≥Median (77)
# [16] = percent predicted FEV1 group 2 <80
# [17] = percent predicted FEV1 group 2 ≥80
compound,measurement,setting,value
"CC(C)(C=C(C#N)C(=O)N1CCC[C@@H](n2nc(-c3ccc(Oc4ccccc4)cc3F)c3c(N)ncnc32)C1)N1CCN(C2COC2)CC1 (mixture of isomers) [rilzabrutinib, (R)-2-[3-[4-amino-3-(2-fluoro-4-phenoxy-phenyl)pyrazolo[3,4-d]pyrimidin-1-yl]piperidine-1-carbonyl]-4-methyl-4-[4-(oxetan-3-yl)piperazin-1-yl]pent-2-enenitrile]",OR vs. placebo,[1],0.752
same,RD vs. Placebo,[1],−0.049
same,"LOAC, number",atopic medical conditions: No,8
same,OR vs. placebo,atopic medical conditions: No,0.493
same,RD vs. Placebo,atopic medical conditions: No,−0.130
same,"LOAC, number",atopic medical conditions: Yes,4
same,OR vs. placebo,atopic medical conditions: Yes,0.821
same,RD vs. Placebo,atopic medical conditions: Yes,−0.031
same,"LOAC, number",background ICS dose High,6
same,OR vs. placebo,background ICS dose High,0.911
same,RD vs. Placebo,background ICS dose High,−0.011
same,"LOAC, number",background ICS dose Medium,6
same,OR vs. placebo,background ICS dose Medium,0.421
same,RD vs. Placebo,background ICS dose Medium,−0.173
same,"LOAC, number",baseline ACQ-5 >2,6
same,OR vs. placebo,baseline ACQ-5 >2,0.346
same,RD vs. Placebo,baseline ACQ-5 >2,−0.181
same,"LOAC, number",baseline ACQ-5 ≤2,6
same,OR vs. placebo,baseline ACQ-5 ≤2,1.162
same,RD vs. Placebo,baseline ACQ-5 ≤2,0.025
same,"LOAC, number",baseline FeNO level 1 <25 ppb,9
same,OR vs. placebo,baseline FeNO level 1 <25 ppb,0.567
same,RD vs. Placebo,baseline FeNO level 1 <25 ppb,−0.065
same,"LOAC, number",baseline FeNO level 1 ≥25 ppb,3
same,OR vs. placebo,baseline FeNO level 1 ≥25 ppb,0.798
same,RD vs. Placebo,baseline FeNO level 1 ≥25 ppb,−0.053
same,"LOAC, number",baseline FeNO level 2 <35 ppb,9
same,OR vs. placebo,baseline FeNO level 2 <35 ppb,0.655
same,RD vs. Placebo,baseline FeNO level 2 <35 ppb,−0.029
same,"LOAC, number",baseline FeNO level 2 ≥35 ppb,3
same,OR vs. placebo,baseline FeNO level 2 ≥35 ppb,0.628
same,RD vs. Placebo,baseline FeNO level 2 ≥35 ppb,−0.094
same,"LOAC, number",[2],6
same,OR vs. placebo,[2],0.774
same,RD vs. Placebo,[2],−0.011
same,"LOAC, number",[3],6
same,OR vs. placebo,[3],0.514
same,RD vs. Placebo,[3],−0.120
same,"LOAC, number",baseline IgE <100 IU/mL,4
same,OR vs. placebo,baseline IgE <100 IU/mL,0.602
same,RD vs. Placebo,baseline IgE <100 IU/mL,−0.085
same,"LOAC, number",[4],6
same,OR vs. placebo,[4],0.681
same,RD vs. Placebo,[4],−0.070
same,"LOAC, number",baseline IgE ≥100 IU/mL,8
same,OR vs. placebo,baseline IgE ≥100 IU/mL,0.522
same,RD vs. Placebo,baseline IgE ≥100 IU/mL,−0.122
same,"LOAC, number",[5],6
same,OR vs. placebo,[5],0.510
same,RD vs. Placebo,[5],−0.122
same,"LOAC, number",[6],7
same,OR vs. placebo,[6],0.827
same,RD vs. Placebo,[6],−0.036
same,OR vs. placebo,[7],0.362
same,RD vs. Placebo,[7],−0.176
same,"LOAC, number",[8],6
same,OR vs. placebo,[8],0.716
same,RD vs. Placebo,[8],−0.062
same,"LOAC, number",[9],4
same,OR vs. placebo,[9],1.619
same,RD vs. Placebo,[9],0.072
same,"LOAC, number",[10],2
same,OR vs. placebo,[10],0.139
same,RD vs. Placebo,[10],−0.363
same,"LOAC, number",[11],10
same,OR vs. placebo,[11],1.019
same,RD vs. Placebo,[11],0.047
same,"LOAC, number",[12],2
same,OR vs. placebo,[12],0.146
same,RD vs. Placebo,[12],−0.350
same,"LOAC, number",[13],4
same,OR vs. placebo,[13],0.441
same,RD vs. Placebo,[13],−0.157
same,"LOAC, number",[14],4
same,OR vs. placebo,[14],0.452
same,RD vs. Placebo,[14],−0.129
same,"LOAC, number",[15],8
same,OR vs. placebo,[15],0.599
same,RD vs. Placebo,[15],−0.078
same,"LOAC, number",[16],7
same,OR vs. placebo,[16],0.736
same,RD vs. Placebo,[16],−0.047
same,OR vs. placebo,[17],0.429
same,RD vs. Placebo,[17],−0.139
same,"LOAC, number",smoking history Former,2
same,OR vs. placebo,smoking history Former,0.500
same,RD vs. Placebo,smoking history Former,−0.167
same,"LOAC, number",smoking history Never,10
same,OR vs. placebo,smoking history Never,0.551
same,RD vs. Placebo,smoking history Never,−0.102
